Laboratory results from ChEMBL document CHEMBL4007434, “Indazole-Based Covalent Inhibitors To Target Drug-Resistant Epidermal Growth Factor Receptor” (J Med Chem, 2017).
The source made the active and inactive calls. The calls are words filed in the database; no cut-off is given here.

What was measured:
[1] = tested on: Epidermal growth factor receptor (Homo sapiens), P00533 [L858R,T790M,C797S]; assay: Inhibition of EGFR L858R/T790M/C797S triple mutant (unknown origin) by HTRF assay
[2] = tested on: Liver; assay: Stability in mouse liver microsomes at 3 uM up to 50 mins by LCMS analysis; format: ADME, microsome
[3] = tested on: Epidermal growth factor receptor (Homo sapiens), P00533 [T790M]; assay: Binding affinity to EGFR T790M mutant (unknown origin) assessed as covalent adduct formation at 100 uM after 1 hr by ESI-MS analysis
[4] = target: T1, Epidermal growth factor receptor (Homo sapiens, UniProt P00533, L858R/T790M)
[5] = tested on: Epidermal growth factor receptor (Homo sapiens), P00533 [L858R,T790M]; conditions: 100 nM
[6] = tested on: Epidermal growth factor receptor (Homo sapiens), P00533 [T790M]; conditions: 1 uM
[7] = tested on: Epidermal growth factor receptor (Homo sapiens), P00533 [L858R]
[8] = target: T2, Epidermal growth factor receptor (Homo sapiens, UniProt P00533); assay: Ratio of Kinact to Ki for reversible inhibition of wild-type human N-terminal GST-tagged EGFR cytoplasmic domain (669 to 1210 end amino acid residues) expressed in baculovirus expression system
[9] = target: T2, Epidermal growth factor receptor; assay: Reversible inhibition of wild-type human N-terminal GST-tagged EGFR cytoplasmic domain (669 to 1210 end amino acid residues) expressed in baculovirus expression system using TK peptide substrate assessed as inactivation constant preincubated for 2 to 90 mins followed by 6-fold dilution
[10] = target: Tyrosine-protein kinase BTK (Homo sapiens) (UniProt Q06187); assay: Inhibition of full-length recombinant human His-tagged cytoplasmic BTK expressed in baculovirus expression system at 1 uM by Z'-LYTE assay
[11] = target: T1, Epidermal growth factor receptor; assay: Reversible inhibition of human N-terminal GST-tagged EGFR L858R/T790M double mutant cytoplasmic domain (669 to 1210 end amino acid residues) expressed in baculovirus expression system using TK peptide substrate preincubated for 2 to 90 mins followed by 6-fold dilution
[12] = target: Receptor tyrosine-protein kinase erbB-2 (Homo sapiens) (UniProt P04626); assay: Inhibition of ERBB2 (unknown origin) at 1 uM by Z'-LYTE assay
[13] = target: T3, Tyrosine-protein kinase TXK (Homo sapiens) (UniProt P42681); assay: Inhibition of full-length recombinant human N-terminal GST-tagged cytoplasmic TXK (260 to 527 amino acid residues) expressed in baculovirus expression system at 1 uM by Z'-LYTE assay
T3 sequence (whole entry): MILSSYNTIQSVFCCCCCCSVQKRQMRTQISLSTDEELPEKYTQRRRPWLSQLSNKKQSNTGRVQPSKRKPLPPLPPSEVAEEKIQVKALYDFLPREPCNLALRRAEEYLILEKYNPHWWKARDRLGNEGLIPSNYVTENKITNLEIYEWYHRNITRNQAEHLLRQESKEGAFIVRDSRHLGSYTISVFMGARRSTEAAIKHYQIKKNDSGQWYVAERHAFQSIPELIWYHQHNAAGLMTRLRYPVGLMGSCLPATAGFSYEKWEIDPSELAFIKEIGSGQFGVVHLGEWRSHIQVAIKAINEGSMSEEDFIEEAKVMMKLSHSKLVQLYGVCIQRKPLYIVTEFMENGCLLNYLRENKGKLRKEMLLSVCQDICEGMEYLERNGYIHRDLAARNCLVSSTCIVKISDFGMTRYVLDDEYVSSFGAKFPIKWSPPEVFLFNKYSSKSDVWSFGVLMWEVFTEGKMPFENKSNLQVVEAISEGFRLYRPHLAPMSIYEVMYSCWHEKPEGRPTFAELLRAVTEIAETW

[14] = Stability in mouse plasma assessed as compound remaining at 5 uM after 1 hr by LCMS analysis; format: ADME, cell-free; conditions: read-out: Stability
[15] = target: T2, Epidermal growth factor receptor; assay: Inhibition of wild-type EGFR in human A431 cells assessed as reduction in cell viability after 96 hrs by CellTiterGlo assay; format: ADME, cell-based

Receptor tyrosine-protein kinase erbB-2 (Homo sapiens), sequence (P04626 whole entry, the tested form may be a part): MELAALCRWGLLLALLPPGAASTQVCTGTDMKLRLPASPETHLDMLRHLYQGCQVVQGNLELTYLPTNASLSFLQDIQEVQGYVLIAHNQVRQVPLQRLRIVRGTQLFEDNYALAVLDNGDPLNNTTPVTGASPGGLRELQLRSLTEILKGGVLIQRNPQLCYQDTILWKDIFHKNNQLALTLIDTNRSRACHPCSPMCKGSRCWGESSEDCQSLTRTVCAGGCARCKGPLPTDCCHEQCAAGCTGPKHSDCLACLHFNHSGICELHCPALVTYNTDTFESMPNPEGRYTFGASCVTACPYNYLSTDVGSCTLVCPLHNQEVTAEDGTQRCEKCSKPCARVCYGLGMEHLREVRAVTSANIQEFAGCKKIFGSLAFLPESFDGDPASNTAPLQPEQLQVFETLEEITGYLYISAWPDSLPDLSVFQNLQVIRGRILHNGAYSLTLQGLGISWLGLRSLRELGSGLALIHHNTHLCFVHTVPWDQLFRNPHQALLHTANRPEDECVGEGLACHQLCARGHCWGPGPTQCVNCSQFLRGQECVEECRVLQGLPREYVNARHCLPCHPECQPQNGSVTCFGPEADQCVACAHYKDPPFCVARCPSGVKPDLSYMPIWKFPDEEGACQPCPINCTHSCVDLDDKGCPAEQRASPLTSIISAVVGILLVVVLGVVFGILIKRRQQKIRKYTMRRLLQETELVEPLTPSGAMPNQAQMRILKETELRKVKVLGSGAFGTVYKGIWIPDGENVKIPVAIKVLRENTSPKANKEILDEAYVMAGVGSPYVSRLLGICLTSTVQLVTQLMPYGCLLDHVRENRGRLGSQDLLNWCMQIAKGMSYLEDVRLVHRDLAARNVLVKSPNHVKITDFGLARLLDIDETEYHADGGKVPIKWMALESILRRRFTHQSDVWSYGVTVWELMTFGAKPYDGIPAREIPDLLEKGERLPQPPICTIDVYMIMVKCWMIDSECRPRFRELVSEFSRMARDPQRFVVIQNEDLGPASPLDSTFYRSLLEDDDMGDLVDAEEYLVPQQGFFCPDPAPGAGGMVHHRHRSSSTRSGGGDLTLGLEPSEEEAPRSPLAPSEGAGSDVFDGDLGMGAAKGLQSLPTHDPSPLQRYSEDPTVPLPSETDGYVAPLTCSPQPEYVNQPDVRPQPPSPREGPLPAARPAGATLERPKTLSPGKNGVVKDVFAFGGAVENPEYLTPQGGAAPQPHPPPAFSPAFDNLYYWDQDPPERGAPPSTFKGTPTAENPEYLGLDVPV
Tyrosine-protein kinase BTK (Homo sapiens), sequence (Q06187 whole entry, the tested form may be a part): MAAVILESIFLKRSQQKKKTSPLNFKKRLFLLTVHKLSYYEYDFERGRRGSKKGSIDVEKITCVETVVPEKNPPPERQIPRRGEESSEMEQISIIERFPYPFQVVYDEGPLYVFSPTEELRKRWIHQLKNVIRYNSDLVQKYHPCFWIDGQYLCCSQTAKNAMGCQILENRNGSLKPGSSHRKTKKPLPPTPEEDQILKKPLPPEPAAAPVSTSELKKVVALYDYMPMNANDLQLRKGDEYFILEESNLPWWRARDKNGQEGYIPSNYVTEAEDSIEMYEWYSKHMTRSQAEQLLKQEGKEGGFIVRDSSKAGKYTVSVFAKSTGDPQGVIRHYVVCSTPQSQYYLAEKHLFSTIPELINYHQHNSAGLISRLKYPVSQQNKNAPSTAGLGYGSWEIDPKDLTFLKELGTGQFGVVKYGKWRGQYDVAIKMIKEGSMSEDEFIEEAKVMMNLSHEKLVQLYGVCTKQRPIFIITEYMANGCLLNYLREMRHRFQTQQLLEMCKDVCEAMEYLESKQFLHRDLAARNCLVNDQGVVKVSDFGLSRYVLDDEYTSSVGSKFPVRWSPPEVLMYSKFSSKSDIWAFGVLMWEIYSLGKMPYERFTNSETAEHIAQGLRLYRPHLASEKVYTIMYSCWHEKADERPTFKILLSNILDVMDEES

C=CC(=O)Nc1cc(Nc2n[nH]c3cc(Nc4cccc(F)c4)ccc23)c(OC)cc1N(C)CCN(C)C
inhibition [1]: inactive | Stability [2]: Stable | Activity [3]: Active | IC50 [4]: < 1 nM | inhibition [5]: Active | inhibition [6]: > 95% | Kinact [7]: 0.09 min⁻¹ | kinact/KI [8]: 470000 M⁻¹ s⁻¹ | kinact [9]: 0.00233 s⁻¹ | inhibition [10]: > 85% | Ki [11]: 7.4 nM | inhibition [12]: Active | inhibition [13]: > 85% | remaining at 1 h, 5 µM [14]: > 90% | EC50 [15]: 3100 nM
